According to patent US10391196B2, “Prefabricated alginate-drug bandages” (President and Fellows of Harvard College, priority 2013, dated 2019):
“Also recorded” adds a separate entry of the source.

Assays:
[1] = Release of model drugs from 4% (w/v) alginate pieces; type: physicochemical; conditions: 4% (w/v) alginate pieces 8 mm diameter, 2 mm thick, cross-linked 15 minutes
Description: Drug release was recorded for 4% (w/v) alginate pieces 8 mm in diameter and 2 mm in thickness that were cross-linked for 15 minutes. […] (Sample size of study n=3 per time point).

[2] = Substance P release from alginate bandage sheets in PBS, measured by ELISA; type: physicochemical; conditions: 2% (w/v) and 4% (w/v) bandaging sheets; 8 mm diameter, 2 mm thick sample in 2 mls PBS
Description: The release was performed by placing the bandage sample of 8 mm diameter and 2 mm thickness in 2 mls of PBS and moving it to a new solution at defined time intervals. The release was examined using a commercially available ELISA assay. […] The sheets incorporate either 32 μg or 64 μg of Substance P with a given processing loss (Sample size n=3 per time point). Small molecule compounds (less than 1000 daltons) are typically added to the composition in a volume of 250 μl for a dressing that is about 12 mm in diameter and 2 mm thick. Thus, substance P was added at 128 μg/ml at the low concentration and 256 μg/ml at the higher concentration. Actual clinical doses are the same or similar. Since small molecules may diffuse out of the dressing quickly, it is advantageous for small molecules to have an affinity for the alginate, e.g., since alginate is negatively charged, positively charged small molecule drugs elute at a clinically acceptable and beneficial rate (and consistent with standard practice for changing of wound dressings). For example, substance P is slightly positively charged and is therefore attracted to the alginate. Charge is less or not relevant for larger molecules, e.g., BSA. Generally, the dose is determined based on the therapeutic dose of the drug. For example, VEGF is administered to the dressing at about 50 μg/ml (3 μg in 60 μl of liquid).

Molecule | release profile from the alginate dressing material [1] | loss during wetting step [1] [%] | duration of sustained release of the peptide from the bandage [2]
O=C1c2c(O)ccc(O)c2C(=O)c2c(NCCNCCO)ccc(NCCNCCO)c21 [mitoxantrone, Mitoxantrone] | sustained release from the scaffold, which is still ongoing at the termination of the experiment |  | 
Cc1cc(-c2ccc(/N=N/c3c(S(=O)(=O)O)cc4cc(S(=O)(=O)O)cc(N)c4c3O)c(C)c2)ccc1/N=N/c1c(S(=O)(=O)O)cc2cc(S(=O)(=O)O)cc(N)c2c1O [trypan blue dye, Trypan blue] | lost very rapidly; also recorded: the majority within one day | 24 | 
Arg-Pro-Lys-Pro-Gln-Gln-Phe-Phe-Gly-Leu-Met [Substance P] |  |  | at least 3 days
